Experimental data taken from ChEMBL document CHEMBL3885861, “Open TG-GATES”.

Species on record: Rattus norvegicus
Assay: Open TG-GATES - Regimen: Single
Assay type: toxicity, organism-based, Sprague-Dawley
Parameters: regimen Single, gender Male, age 6 weeks
Conditions: in vivo, ip, 0 mg/kg, route intraperitoneal injection, dose 0 ug/Kg, dose level Control; for APTT / Bas / Eos / Fbg / Hb / Ht / Lym / MCH / MCHC / MCV / Mono / Neu / PT / Plat / RBC / Ret / WBC: tissue Blood; for KIDNEY_L / KIDNEY_R / KIDNEY_TOTAL: tissue Kidney; for LIVER: tissue Liver; for A/G / ALP / ALT / AST / BUN / CRE / Ca / Cl / DBIL / GLC / IP / K / LDH / Na / PL / RALB / TBIL / TC / TG / TP / gamma-GTP: tissue Plasma

H-KGDRLS-OH [TNF-ALPHA]
TERMINAL_BW (3 h): 200.6 g | APTT (3 h): 20 s | Bas (3 h): 0.4% | Eos (3 h): 0.8% | Fbg (3 h): 268.8 mg/dL | Hb (3 h): 13 g/dL | Ht (3 h): 40.3% | Lym (3 h): 73.8% | MCH (3 h): 21.6 pg | MCHC (3 h): 32.3% | MCV (3 h): 66.8 fL | Mono (3 h): 3.8% | Neu (3 h): 19.8% | PT (3 h): 15.4 s | Plat (3 h): 101.9 x10_4/uL | RBC (3 h): 603.2 x10_4/ul | Ret (3 h): 9.3% | WBC (3 h): 95.8 x10_2/uL | KIDNEY_L (3 h): 0.9 g | KIDNEY_R (3 h): 0.9 g | KIDNEY_TOTAL (3 h): 1.7 g | LIVER (3 h): 9.3 g | A/G (3 h): 0.9 | ALP (3 h): 1391 IU/L | ALT (3 h): 43 IU/L | AST (3 h): 74.8 IU/L | BUN (3 h): 10.8 mg/dL | CRE (3 h): 0.2 mg/dL | Ca (3 h): 10.8 mg/dL | Cl (3 h): 105.2 meq/L | DBIL (3 h): 0.012 mg/dL | GLC (3 h): 173.4 mg/dL | IP (3 h): 9.6 mg/dL | K (3 h): 4.1 meq/L | LDH (3 h): 73.2 IU/L | Na (3 h): 142.2 meq/L | PL (3 h): 149.2 mg/dL | RALB (3 h): 2.4 g/dL | TBIL (3 h): 0.06 mg/dL | TC (3 h): 79.8 mg/dL | TG (3 h): 61.2 mg/dL | TP (3 h): 5.3 g/dL | gamma-GTP (3 h): 1.2 IU/L | TERMINAL_BW (6 h): 199.4 g | APTT (6 h): 16.7 s | Bas (6 h): 0% | Eos (6 h): 0.2% | Fbg (6 h): 285 mg/dL | Hb (6 h): 13.1 g/dL | Ht (6 h): 40% | Lym (6 h): 68.8% | MCH (6 h): 21.3 pg | MCHC (6 h): 32.6% | MCV (6 h): 65.1 fL | Mono (6 h): 2.8% | Neu (6 h): 26.8% | PT (6 h): 15.6 s | Plat (6 h): 109.7 x10_4/uL | RBC (6 h): 615.4 x10_4/ul | Ret (6 h): 8.8% | WBC (6 h): 77.4 x10_2/uL | KIDNEY_L (6 h): 0.9 g | KIDNEY_R (6 h): 0.9 g | KIDNEY_TOTAL (6 h): 1.9 g | LIVER (6 h): 8.5 g | A/G (6 h): 0.9 | ALP (6 h): 1347.2 IU/L | ALT (6 h): 40 IU/L | AST (6 h): 73.6 IU/L | BUN (6 h): 9.4 mg/dL | CRE (6 h): 0.2 mg/dL | Ca (6 h): 10.8 mg/dL | Cl (6 h): 105 meq/L | DBIL (6 h): 0.01 mg/dL | GLC (6 h): 179.6 mg/dL | IP (6 h): 10.1 mg/dL | K (6 h): 4 meq/L | LDH (6 h): 58.8 IU/L | Na (6 h): 142.8 meq/L | PL (6 h): 146.4 mg/dL | RALB (6 h): 2.5 g/dL | TBIL (6 h): 0.058 mg/dL | TC (6 h): 78.8 mg/dL | TG (6 h): 44 mg/dL | TP (6 h): 5.3 g/dL | gamma-GTP (6 h): 1.4 IU/L | TERMINAL_BW (9 h): 195.6 g | APTT (9 h): 18 s | Bas (9 h): 0.4% | Eos (9 h): 0.4% | Fbg (9 h): 305 mg/dL | Hb (9 h): 13.1 g/dL | Ht (9 h): 40.5% | Lym (9 h): 68.4% | MCH (9 h): 20.9 pg | MCHC (9 h): 32.5% | MCV (9 h): 64.2 fL | Mono (9 h): 1.6% | Neu (9 h): 28.6% | PT (9 h): 15.4 s | Plat (9 h): 118.6 x10_4/uL | RBC (9 h): 631 x10_4/ul | Ret (9 h): 8.6% | WBC (9 h): 77.2 x10_2/uL | KIDNEY_L (9 h): 0.9 g | KIDNEY_R (9 h): 0.9 g | KIDNEY_TOTAL (9 h): 1.9 g | LIVER (9 h): 8.2 g | A/G (9 h): 0.9 | ALP (9 h): 1246.8 IU/L | ALT (9 h): 42.6 IU/L | AST (9 h): 81.6 IU/L | BUN (9 h): 7.6 mg/dL | CRE (9 h): 0.1 mg/dL | Ca (9 h): 10.4 mg/dL | Cl (9 h): 105.4 meq/L | DBIL (9 h): 0.004 mg/dL | GLC (9 h): 167.4 mg/dL | IP (9 h): 9.9 mg/dL | K (9 h): 3.5 meq/L | LDH (9 h): 61.4 IU/L | Na (9 h): 143.4 meq/L | PL (9 h): 135.8 mg/dL | RALB (9 h): 2.5 g/dL | TBIL (9 h): 0.058 mg/dL | TC (9 h): 74 mg/dL | TG (9 h): 33.6 mg/dL | TP (9 h): 5.4 g/dL | gamma-GTP (9 h): 1.2 IU/L | TERMINAL_BW (24 h): 211.3 g | APTT (24 h): 17.6 s | Bas (24 h): 0% | Eos (24 h): 1% | Fbg (24 h): 302 mg/dL | Hb (24 h): 13.3 g/dL | Ht (24 h): 40.5% | Lym (24 h): 78% | MCH (24 h): 21 pg | MCHC (24 h): 32.8% | MCV (24 h): 64 fL | Mono (24 h): 2.8% | Neu (24 h): 17% | PT (24 h): 15.1 s | Plat (24 h): 115.6 x10_4/uL | RBC (24 h): 634 x10_4/ul | Ret (24 h): 8.1% | WBC (24 h): 80.3 x10_2/uL | KIDNEY_L (24 h): 0.9 g | KIDNEY_R (24 h): 0.9 g | KIDNEY_TOTAL (24 h): 1.8 g | LIVER (24 h): 10.2 g | A/G (24 h): 0.8 | ALP (24 h): 1555.2 IU/L | ALT (24 h): 49 IU/L | AST (24 h): 69.8 IU/L | BUN (24 h): 14.8 mg/dL | CRE (24 h): 0.2 mg/dL | Ca (24 h): 11 mg/dL | Cl (24 h): 105.8 meq/L | DBIL (24 h): 0.008 mg/dL | GLC (24 h): 184.2 mg/dL | IP (24 h): 9.1 mg/dL | K (24 h): 4.2 meq/L | LDH (24 h): 76.2 IU/L | Na (24 h): 142 meq/L | PL (24 h): 172.2 mg/dL | RALB (24 h): 2.6 g/dL | TBIL (24 h): 0.038 mg/dL | TC (24 h): 93.2 mg/dL | TG (24 h): 98.2 mg/dL | TP (24 h): 5.6 g/dL | gamma-GTP (24 h): 1 IU/L
